Tests used:
Test in all cases: relative viability (nuclei count vs DMSO), 5 days (fraction); higher = more cells survive
AZD6482 = compound: Cc1cc([C@@H](C)Nc2ccccc2C(=O)O)c2nc(N3CCOCC3)cc(=O)n2c1 [AZD6482]
How it was run: (§1)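 Viability here means nuclei in treated wells divided by nuclei in vehicle wells, reported as the median across plates. Only plates with control CV below 25% and at least one doubling passed. Lung cancer cell lines in 1536-well plates were exposed to five √10-spaced library-drug doses for 5 days and counted from 4× Hoechst images in MetaXpress.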

[1] = compound: COc1cc2nc(N3CCCN(C)CC3)nc(NC3CCN(Cc4ccccc4)CC3)c2cc1OC
How it was run: as §1

[2] = compound: COc1cc2nc(N3CCCN(C)CC3)nc(NC3CCN(Cc4ccccc4)CC3)c2cc1OC + COc1cc2c(Oc3ccc(NC(=O)C4(C(=O)Nc5ccc(F)cc5)CC4)cc3F)ccnc2cc1OCCCN1CCOCC1 [Foretinib] (partner 0.25 µM)
How it was run: (§2)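 After 5 days of treatment, lung cancer cells in 1536-well plates were fixed and stained in a single step (final 0.05% Triton X-100, 1% formaldehyde, 1 ug/ml Hoechst) and their nuclei counted on 4× images. Treatment had been applied by pin tool the day after seeding as one drug alone or as a fixed anchor-drug dose with five library-drug doses (not always all listed) in √10 steps. Relative viability is the nuclei count of treated wells divided by that of vehicle wells, and values are medians of duplicate plates.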

[3] = compound: COc1cc2nc(N3CCCN(C)CC3)nc(NC3CCN(Cc4ccccc4)CC3)c2cc1OC + CS(=O)(=O)CCNCc1ccc(-c2ccc3ncnc(Nc4ccc(OCc5cccc(F)c5)c(Cl)c4)c3c2)o1 [Lapatinib] (partner 2 µM)
How it was run: as §2

Cell Line: UMC-11
- relative viability (AZD6482; 0.08 µM): 0.949
- relative viability (AZD6482; 0.253 µM): 0.94
- relative viability (AZD6482; 0.8 µM): 1.01
- relative viability (AZD6482; 2.53 µM): 0.736
- relative viability (AZD6482; 8 µM): 1.22
- relative viability ([1]; 0.2 µM): 0.998
- relative viability ([1]; 0.6325 µM): 0.973
- relative viability ([1]; 2 µM): 1.06
- relative viability ([1]; 6.325 µM): 0.932
- relative viability ([2]; first compound 0.2 µM): 0.943
- relative viability ([2]; first compound 0.6325 µM): 1.05
- relative viability ([2]; first compound 2 µM): 1.15
- relative viability ([2]; first compound 6.325 µM): 0.826
- relative viability ([3]; first compound 0.2 µM): 0.93
- relative viability ([3]; first compound 0.6325 µM): 1.12
- relative viability ([3]; first compound 2 µM): 1.03
- relative viability ([3]; first compound 6.325 µM): 0.656

From the supplement of paper PMC10307832
